Test results: patent publication US9408795B2, “Method for enhancing the growth and fullness of hair” (Avon Products, Inc., priority 2011, dated 2016)

Tested on: FGFR1 gene expression
Assay: PCR to assess FGFR1 gene expression in human dermal papilla cells
Assay type: cell-based
Settings: 48-hour incubation, normalized to 18S, vs DMSO control
Procedure: Method: PCR to assess FGFR1 gene expression in human dermal papilla cells, following administration of L-4-Thiazolylalanine, Pouzolzia petandra, or cis-6-nonenol.
Human dermal papilla cells (Cell Applications, CA) were plated at 5000 cells/cm^2 in collagen-coated 6-well culture plates in the Papilla Cell Growth Medium (Cell Application, CA) overnight in humidified atmosphere of 5% CO2 at 37° C. When dermal papilla cells reached 80-90% confluence, the medium was replaced with fresh medium and the compounds (L-4-Thiazolylalanine, Pouzolzia petandra, or cis-6-nonenol) dissolved in DMSO were added to the wells in duplicate at a concentration of 0.002% or 0.001%. DMSO was used a vehicle control. Following 48-hour incubation, the medium was removed and the cells were collected in the Lysis/Binding Solution (Ambion, Tex.) after being washed with cold PBS.
Total RNA was extracted from dermal papilla cells by using the RNAqueous kit (Ambion, Tex.) according to the manufacture's instruction. RNA was quantified on the Nanodrop ND-1000 Spectrophotometer (NanoDrop Technologies, DE) and the confirmation of integrity was determined using the Agilent Bioanalyzer before RNA was further processed for cDNA preparation. […]
RNA abundance of FGFR1 was measured using quantitative Real-Time PCR. […] All samples were run in triplicate and normalized to 18S and expressed as a percentage of the control.

Row | SMILES | Percent Inhibition of FGFR1 Expression (0.002% (w/v)) | Percent Inhibition of FGFR1 Expression (0.001% (w/v))
1 | CC/C=C\CCCCCO [cis-6-nonenol] | 28.25% | 
2 | N[C@@H](Cc1cscn1)C(=O)O [L-4-Thiazolylalanine, 4-L-thiazolylalanine] |  | 59.13%
